The text below walks through data of patent US20220288114A1, “MULTI-AGENT OCULAR FORMULATIONS AND TREATMENT METHODS” (University of Utah Research Foundation, priority 2019, published 2022).

One test has as its system guinea pigs. Description: Refractive error by streak retinoscopy in guinea pigs, 60-day atropine eye drop treatment. The test is classed as in vivo. As to conditions: .001% eye drops 2 times per day for approximately 60 days.
The next test concerns cornea. As to conditions: rabbits. The source says:
The Ocular Response Analyzer (ORA; Reichert, Inc, Buffalo, N.Y.) is a commercially available noncontact tonometer that also assesses the viscoelastic nature of the cornea with bidirectional detection of applanation events to allow in vivo measurements of corneal biomechanical response parameters under air puff loading 42. The system includes an infrared emitter and detector aligned such that applanation produces a spike on the detector with a mirror like reflection from the flattened corneal surface.
Two applanation pressure measurements are reported by the ORA: one while the cornea moves inward, reaching first applanation, at pressure P1, and the other after the cornea recovers from a slight concavity as it moves outward passing through a second applanation at pressure P2. Therefore, these two values, P1 and P2, indicate the pressures associated with a flattened cornea during the loading and unloading cycle, with P2<P1 for a valid measurement. The difference between P1 and P2 is termed corneal hysteresis (CH).
A greater value for Peak 1 or Peak 2 indicates a larger area of applanation which is associated with a stiffer response. Thus, for the current study the
ORA pressure and applanation signals were analyzed using custom software to determine the magnitudes of Peak 1 and Peak 2. ORA measurements were assessed at baseline and every week for 6-8 weeks on the same set of rabbits described in 2.4.b which included 4 groups Sol A, Sol B, and vehicle and no drops. An increase in Peak 1 and Peak 2 can be present after stiffening; therefore, one-tailed t-tests were used for statistical analysis to compare groups.
The times at 3, 4, 5, and 6 weeks for the combined AB (treatment Sol A and treatment Sol B) treatment group were averaged for comparison against no therapy and vehicle. Peak 1 and Peak 2 were compared to both controls.

The next test deals with rabbits. As to conditions: 0.15 mg/ml eye drops 2 times per day for approximately 60 days. As for the experimental part: Treatment using 0.15 mg/ml copper sulfate pentahydrate in an ophthalmic vehicle is administered at approximately 6 weeks of age to rabbits. Eyedrops are administered 2 times per day for approximately 60 days. Refractive error is measured by an ophthalmologist prior to treatment on day 1 and at subsequent time-points (e.g., 14 days, 27 days, 44 days, and 62 days after the beginning of treatment) depicted in FIG. 3. […] Stable refractive errors are typically obtained after 15 minutes when there is no pupil response. FIG. 3 presents refractive error measurements for the test subjects in each eye.

For test [1], the system named is LNL crosslinks in rabbit cornea. The following applies: rabbits; 0.15 mg/ml eye drops twice a day for 6 weeks; LC-MS.
Description: After six weeks each group of corneas is dissected, weighed and used for LNL analysis. Samples are reduced with NaBH4 at room temperature then washed twice with water, dried, and hydrolyzed with 6N
HCl in vacuo for 18 hours at 110° C. […] The hydrolysates are dried to evaporate HCL, reconstituted with H2O, and re-dried to remove residual HCl. Post hydrolysis, cross-link enrichment is carried out using a cellulose mini-column method. Samples are then provided for LNL analysis by mass spectroscopy (LC/MS).
To perform liquid chromatography/mass spectroscopy (LC/MS), 1 μL of 100 μg/mL d9-Lysine is added to all samples as an internal standard. A calibration curve is created using serial dilution. Semi-quantitative mass spectral analysis is performed using a Sciex 6500 Q-Trap (Sciex, Farmington, MA). A helicon iHILIC-Fusion 2.1×100 mm column (Umeå, Sweden) is used for chromatography using 10 mM NH4OAc (Buffer A) and ACN (Buffer B). LC/MS is performed in the positive mode with a TurboIon source using optimized source conditions. Quantitative data analysis is conducted using Sciex MultiQuant software.

Description for guinea pigs: Treatment using .001% atropine sulfate monohydrate eye drops is administered at approximately 1 week of age to guinea pigs. The eye drops are administered 2 times per day for approximately 60 days. Refractive error is measured by an ophthalmologist prior to treatment on day 1 and at subsequent time-points (e.g., 14 days, 27 days, 44 days, and 62 days after the beginning of treatment) depicted in FIGS. 1A-1C. […] Stable refractive errors are typically obtained after 15 minutes when there is no pupil response.

In the case of `CN1[C@@H]2CC[C@H]1CC(OC(=O)C(CO)c1ccccc1)C2.CN1[C@@H]2CC[C@H]1CC(OC(=O)C(CO)c1ccccc1)C2.O.O=S(=O)(O)O` (some centres unmarked) [Atropine, atropine sulfate monohydrate], the “Progression of myopia (refractive error)” value in the test with guinea pigs was “Slows Progression of Myopia”.

On to `O=S(=O)([O-])[O-].[Cu+2]` [Copper sulfate], for which the “Corneal stiffening in vivo as measured by waveform response to air puff deformation” value in the test with cornea (ORA) was “generates stiffening in vivo”. The “Peak 1, treated group AB versus no therapy” value with cornea (weeks 3, 4, 5 and 6 averaged, combined Sol A and Sol B, one-tailed t-test p=0.0244) is listed as “significantly greater than no therapy”. Besides, the “Peak 2, treated group AB versus vehicle” value with cornea (weeks 3, 4, 5 and 6 averaged, combined Sol A and Sol B, p<0.0001) is on record as “significantly greater”. Besides, in the test with cornea (weeks 3, 4, 5 and 6 averaged, combined Sol A and Sol B, p=0.0098), the “Peak 2, treated group AB versus no therapy” value is given as “significantly greater than no therapy”. In the test on cornea (weeks 3, 4, 5 and 6 averaged, combined Sol A and Sol B, p=0.0763), the “Peak 1, treated group AB versus vehicle” value is on record as “no substantial difference”.

As to `O.O.O.O.O.O=S(=O)([O-])[O-].[Cu+2]` [copper sulfate pentahydrate], in the test on rabbits, the “Reduction of myopic progression in the treatment eye compared to control” value is given as “approximately 63%”. The “LNL crosslinks in treated rabbit cornea compared to control (no treatment) and vehicle group” value in test [1] is recorded as “significant increases”.
